Tests used:
[1] = system: mixed lymphocyte reaction (PBMC with allogeneic PBMC or Eppstein-Barr Virus-transformed human B cells as stimulator cells); assay: Mixed lymphocyte reaction (MLR) assay; assay type: cell-based; details: lowest concentration giving 50% suppression of the MLR; [3H]-thymidine
[2] = system: production of TNF-α by PBMC in response to stimulation by LPS; assay: TNF-α assay; assay type: cell-based, human; details: LPS 1 μg/ml, 72 hours, sandwich ELISA
Outline: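 Cells were LPS-stimulated (1 μg/ml final) peripheral blood mononuclear cells at 10^6/ml, exposed 72 h at 37 °C to 0.1, 1 or 10 μM test compound.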

[3] = system: production of IL-1 β by PBMC in response to stimulation by LPS; assay: IL-1 β assay; assay type: cell-based, human; details: LPS 1 μg/ml, 72 hours, sandwich ELISA
Experimental: Peripheral blood mononuclear cells (herein referred as PBMC), in response to stimulation by lipopolysaccharide (LPS), a gram-negative bacterial endotoxin, produce various […], in particular human IL-1 β. Inhibition of the activation of PBMC can therefore be measured by the level of suppression of the production of IL-1 β by PBMC in response to stimulation by LPS.
Such inhibition measurement was performed as follows: PBMC were isolated from heparinized peripheral blood by density gradient centrifugation over Lymphoprep (commercially available from Nycomed, Norway). LPS was then added to the PMBC suspension in complete medium (10^6 cells/ml) at a final concentration of 1 μg/ml. The pteridine derivative to be tested was added at different concentrations (0.1 μM, 1 μM and 10 μM) and the cells were incubated at 37° C. for 72 hours in 5% CO2. The supernatants were collected, then IL-1 β concentrations were measured with an anti-IL-1 β antibody in a sandwich ELISA. The calorimetric reading of the ELISA was measured by a Multiskan RC plate reader (commercially available from ThermoLabsystems, Finland) at 450 nm (reference wavelength: 690 nm). Data analysis was performed with Ascent software 2.6. (also from ThermoLabsystems, Finland): a standard curve (recombinant human IL-1 β) was drawn and the amount (pg/ml) of each sample on the standard curve was determined.
The % suppression of human IL-1 β by the pteridine derivatives (drugs) of this invention was calculated using the formula: [formula]

Structure (SMILES)	IC50 [1] [nM]	IC50 [2] [nM]	IC50 [3] [µM]
COc1ccc(-c2cnc3nc(N)nc(N4CCN(C(=O)COc5ccccc5)CC4)c3n2)cc1OC [Example 17, 2-amino-4-[(N-phenoxyacetyl)-piperazin-1-yl]-6-(3,4-dimethoxy-phenyl)pteridine]	3.8	80	2.8
COc1ccc(-c2cnc3nc(N)nc(N4CCN(c5ccc(C)cc5)CC4)c3n2)cc1OC [Example 176, 2-amino-6-(3,4-dimethoxyphenyl)-4-((4-methylphenyl)-piperazin-1-yl)pteridine]	300	< 10	4.9
